In patent publication US12357645B2, “Drug combination for treatment of gastric cancer” (priority 2023, dated 2025):

Experiments:
ovarian carcinoma cells = assay: Proliferation of ovarian carcinoma cells in vitro (activated with alkaline phosphatase); type: cell-based; settings: concentration-dependent, 50-200 nM
[1] = test system: advanced gastric cancer (AGC); assay: Phase 1 study of minnelide prodrug alone or with paclitaxel in advanced gastric cancer (NCT 05566834): antitumor activity (RECIST v1.1; BOR, ORR, DCR, PFS, OS); type: in vivo, human
Protocol: Target Lesions. All measurable lesions up to a maximum of two lesions per organ and five lesions in total, representative of all involved organs, were identified as target lesions and recorded and measured at baseline. Target lesions were selected on the basis of their size (lesions with the longest diameter) and were representative of all involved organs, as well as their suitability for reproducible repeated measurements. All measurements were recorded using calipers if clinically assessed.
A sum of the diameters (longest for non-nodal lesions, short axis for nodal lesions) for all target lesions were calculated and reported as the baseline sum diameters, which were used as a reference to further characterize any objective tumor regression in the measurable dimension of the disease. If lymph nodes were included in the sum, only the short axis contributed.
Study design. This was an open-label, nonrandomized, phase 1 study conducted at Samsung Medical Center (SMC) in Korea. The study consisted of three regimens: Monotherapy with minnelide prodrug (Regimen A) and Combination therapy (minnelide prodrug plus paclitaxel), which was further divided into Regimen B and C.
Patients. Adult (≥20 years of age) Korean patients with histologically confirmed advanced-unresectable or metastatic gastric or gastro-esophageal junction adenocarcinoma, who had failed initial standard therapy or for whom no standard treatment was available, were eligible to participate in the study, regardless of HER2 status. Study treatment was discontinued if the patient experienced radiological progressive disease (PD) per Response Evaluation Criteria in Solid Tumors version 1.1 (RECIST v1.1) as assessed by the investigator, clinical progression as assessed by the investigator, or developed unacceptable toxicity.
Treatments. In Regimen A, 3-5 patients were treated at escalating doses of minnelide prodrug alone to determine the maximum tolerated dose (MTD). Minnelide prodrug was administered per oral (PO) once daily for 21 days followed by a 7-day rest period, starting at 1 mg, and escalating to 1.25 mg, and 1.5 mg. One cycle was equal to 28 days and minnelide prodrug was given with the patient in a fasting state. In Regimen B, the same dosing scheme was used for minnelide prodrug 0.25 mg PO in combination with paclitaxel intravenously on days 1, 8 and 15 (Q4W), starting at 60 mg/m^2, and escalating to 80 mg/m^2. In Regimen C, patients were treated with paclitaxel 80 mg/m^2 given intravenously on days 1, 8 and 15 (Q4W) in combination with minnelide prodrug PO once daily on days 1 to 5, 8 to 12 and 15 to 19, starting at 0.5 mg, escalating to 0.75 mg, 1.0 mg, and 1.25 mg. Dose-limiting toxicities (DLTs) were assessed during cycle 1. Treatment continued until disease progression, death, unacceptable toxicity, or patient or investigator decision to discontinue.
Outcomes. In this phase 1 study, the primary objective was to determine the maximum tolerated dose (MTD) and the dose limiting toxicities (DLT) of minnelide prodrug when given alone or in combination with paclitaxel and to establish recommended phase 2 dose (RP2D) of single-agent minnelide prodrug and in combination with paclitaxel every 4 weeks. Secondary objectives were to assess any evidence of antitumor activity of minnelide prodrug alone and in combination with paclitaxel by objective radiographic assessment. Antitumor activity was assessed by objective response rate (ORR). Disease control rate (DCR), duration of response (DOR), progression-free survival (PFS) and overall survival (OS) analysis were performed.
Assessment. Adverse events were graded using National Cancer Institute Common Terminology Criteria for Adverse Events (NCI CTCAE), version 4.03. Tumor assessments were performed after cycles 2, 4, 6, and 8, and every 4 cycles thereafter, or as indicated. Response was determined by investigators using RECIST criteria, version 1.1. […]

[2] = test system: gastric cancer cell lines MKN28 and MKN45; settings: inhibits Sp1 to decrease HSP70; cited from earlier work
[3] = test system: patients with Advanced Solid Tumors; type: in vivo, human
Excerpt: Oral Minnelide Prodrug. A Phase 1, Multi-Center, Open-Label, Dose-Escalation, Safety, Pharmacokinetic, and Pharmacodynamic Study of Minnelide™ Capsules given alone or in combination with protein-bound paclitaxel in patients with Advanced Solid Tumors. A total of 44 patients were enrolled and dosed in the Phase 1 study, 32 in the monotherapy regimen, and 12 in the combination regimen. The primary reason for discontinuation of treatment has been disease progression. There were 9 deaths in the study, 7 of which were assessed as not related to minnelide prodrug and were after discontinuation of the study drug. One patient on the 1.25 mg monotherapy regimen passed away from G5 related sepsis.

[4] = cited from earlier work
gastric cancer = settings: alone or in combination, when properly dosed
Excerpt: Gastric cancer is the most prevalent cancer in South Korea […]. […] Herein, we have evaluated efficacy of minnelide prodrug in combination with paclitaxel in a subcutaneous mouse model of gastric cancer and in a human clinical trial.

[5] = test system: pancreatic tumor cell lines; assay: Viability of pancreatic tumor cell lines in vitro (activated with alkaline phosphatase); type: cell-based; settings: activated by concurrent incubation with alkaline phosphatase
[6] = Regimen A (PO daily x21 d/28 d), n = 11
[7] = Regimen A, nine patients who completed at least 1 cycle with measurable lesions
[8] = Regimen A, Kaplan-Meier estimate
[9] = 44 patients, alone or with protein-bound paclitaxel

CC(C)[C@]12O[C@H]1[C@@H]1O[C@]13[C@]1(O[C@H]1C[C@H]1C4=C(CC[C@@]13C)C(=O)OC4)[C@@H]2OCOP(=O)([O-])[O-].[Na+].[Na+] [minnelide prodrug, disodium; [(1S,2S,4S,5S,7S,8R,9R,11S, 13S)-1-methyl-17-oxo-7-propan-2-yl-3,6,10,16-tetraoxaheptacyclo [11.7.0.0^2,4.0^2,9.0^5,7.0^9,11.0^14,18]icos-14 (18)-en-8-yl]oxymethyl phosphate]
proliferation (ovarian carcinoma cells): reduced the proliferation | Duration of OS, Range ([1]; Regimen A): 1.6-11.1 months | Duration of PFS, Range ([1]; Regimen A): 0.7-5.4 months | PFS events, n (%) ([1]; Regimen A): 9 n (%) | BOR NE, number of patients [1, 6]: 2 | BOR PD, number of patients [1, 6]: 5 | BOR SD, number of patients [1, 6]: Four | DCR, n (%) [1, 6]: 4 (36.4) n (%) | ORR, n (%) [1, 6]: 0 n (%) | BOR SD, number of patients ([1]; Regimen A (PO daily x21 d/28 d), n = 11, listed as Minnelide prodrug): 4 | BOR PD, share of patients [1, 7]: 55.6% | BOR SD, share of patients [1, 7]: 44.4% | DCR [1, 7]: 44.4% | Duration of OS, Median [1, 8]: 5.3 months | Duration of PFS, Median [1, 8]: 1.6 months | duration of stable disease (one patient) ([1]; single agent, patient had failed four lines of therapy including immunotherapy): 5.4 months | cell death [2]: induce cell death | Serious Adverse Events related to the study drug [3, 9]: 4 | Serious Adverse Events, number [3, 9]: 28 | patients who discontinued study drug due to TEAE [3, 9]: Four | patients with Serious Adverse Events [3, 9]: 17 | deaths in the study ([3]; 44 patients: 32 monotherapy, 12 combination): 9 | deaths assessed as not related to minnelide prodrug ([3]; after discontinuation of the study drug): 7 | patients with at least 1 AE considered related to the study drug ([3]; in vivo): Twenty-seven | SAE cases considered dose limiting toxicities (DLTs) ([3]; two events of sepsis, one influenza A pneumonia): Three | aqueous solubility [4]: greater aqueous solubility | toxic effects (gastric cancer): no significant toxic effects | potency in decreasing viability [5]: as potent as triptolide
